According to ChEMBL document CHEMBL3769371, “1-[(2E)-3-Phenylprop-2-enoyl]-1H-benzimidazoles as anticancer agents: synthesis, crystal structure analysis and binding studies of the most potent anticancer molecule with serum albumin” (Medchemcomm, 2015):

Tests used:
K562 [1] = assay: Cytotoxicity against human K562 cells assessed as cell growth at 10^-5 M after 48 hrs by SRB assay; type: functional; conditions: K562, 48 h, read-out: Activity
[2] = Cytotoxicity against human HOP62 cells assessed as cell growth at 10^-5 M after 48 hrs by SRB assay; type: functional; conditions: HOP-62, 48 h, read-out: Activity
[3] = Cytotoxicity against human HOP92 cells assessed as cell growth at 10^-5 M after 48 hrs by SRB assay; type: functional; conditions: HOP-92, 48 h, read-out: Activity
NCI-H522 = assay: Cytotoxicity against human NCI-H522 cells assessed as cell growth at 10^-5 M after 48 hrs by SRB assay; type: functional; conditions: NCI-H522, 48 h, read-out: Activity
[4] = Cytotoxicity against human HCT116 cells assessed as cell growth at 10^-5 M after 48 hrs by SRB assay; type: functional; conditions: HCT-116, 48 h, read-out: Activity
[5] = Cytotoxicity against human SNB75 cells assessed as cell growth at 10^-5 M after 48 hrs by SRB assay; type: functional; conditions: SNB-75, 48 h, read-out: Activity
M14 [6] = assay: Cytotoxicity against human M14 cells assessed as cell growth at 10^-5 M after 48 hrs by SRB assay; type: functional; conditions: M14, 48 h, read-out: Activity
SK-MEL-2 [7] = assay: Cytotoxicity against human SK-MEL-2 cells assessed as cell growth at 10^-5 M after 48 hrs by SRB assay; type: functional; conditions: SK-MEL-2, 48 h, read-out: Activity
SK-MEL-5 [8] = assay: Cytotoxicity against human SK-MEL-5 cells assessed as cell growth at 10^-5 M after 48 hrs by SRB assay; type: functional; conditions: SK-MEL-5, 48 h, read-out: Activity
[9] = Cytotoxicity against human UACC257 cells assessed as cell growth at 10^-5 M after 48 hrs by SRB assay; type: functional; conditions: UACC-257, 48 h, read-out: Activity
[10] = Cytotoxicity against human UACC62 cells assessed as cell growth at 10^-5 M after 48 hrs by SRB assay; type: functional; conditions: UACC-62, 48 h, read-out: Activity
[11] = Cytotoxicity against human NCI-ADR-RES cells assessed as cell growth at 10^-5 M after 48 hrs by SRB assay; type: functional; conditions: read-out: Activity
ACHN = assay: Cytotoxicity against human ACHN cells assessed as cell growth at 10^-5 M after 48 hrs by SRB assay; type: functional; conditions: read-out: Activity
[12] = Cytotoxicity against human RXF393 cells assessed as cell growth at 10^-5 M after 48 hrs by SRB assay; type: functional; conditions: RXF 393, 48 h, read-out: Activity
[13] = Cytotoxicity against human PC3 cells assessed as cell growth at 10^-5 M after 48 hrs by SRB assay; type: functional; conditions: PC-3, 48 h, read-out: Activity
[14] = Cytotoxicity against human DU145 cells assessed as cell growth at 10^-5 M after 48 hrs by SRB assay; type: functional; conditions: DU-145, 48 h, read-out: Activity
MCF7 = assay: Cytotoxicity against human MCF7 cells assessed as cell growth at 10^-5 M after 48 hrs by SRB assay; type: functional; conditions: MCF7, 48 h, read-out: Activity
[15] = Cytotoxicity against human Hs 578T cells assessed as cell growth at 10^-5 M after 48 hrs by SRB assay; type: functional; conditions: read-out: Activity
MDA-MB-468 = assay: Cytotoxicity against human MDA-MB-468 cells assessed as cell growth at 10^-5 M after 48 hrs by SRB assay; type: functional; conditions: MDA-MB-468, 48 h, read-out: Activity
CCRF-CEM = assay: Cytotoxicity against human CCRF-CEM cells after 48 hrs by SRB assay; type: functional
K562 [16] = assay: Cytotoxicity against human K562 cells after 48 hrs by SRB assay; type: functional; conditions: K562, 48 h
[17] = Cytotoxicity against human MOLT4 cells after 48 hrs by SRB assay; type: functional; conditions: MOLT-4, 48 h
NCI-H226 = assay: Cytotoxicity against human NCI-H226 cells after 48 hrs by SRB assay; type: functional; conditions: NCI-H226, 48 h
NCI-H23 = assay: Cytotoxicity against human NCI-H23 cells after 48 hrs by SRB assay; type: functional; conditions: NCI-H23, 48 h
NCI-H322M = assay: Cytotoxicity against human NCI-H322M cells after 48 hrs by SRB assay; type: functional
[18] = Cytotoxicity against human HCC2998 cells after 48 hrs by SRB assay; type: functional; conditions: HCC 2998, 48 h
[19] = Cytotoxicity against human SF295 cells after 48 hrs by SRB assay; type: functional; conditions: SF-295, 48 h
U-251 = assay: Cytotoxicity against human U251 cells after 48 hrs by SRB assay; type: functional; conditions: U-251, 48 h
Malme-3M [20] = assay: Cytotoxicity against human MALME-3M cells after 48 hrs by SRB assay; type: functional
M14 [21] = assay: Cytotoxicity against human M14 cells after 48 hrs by SRB assay; type: functional; conditions: M14, 48 h
SK-MEL-2 [22] = assay: Cytotoxicity against human SK-MEL-2 cells after 48 hrs by SRB assay; type: functional; conditions: SK-MEL-2, 48 h
SK-MEL-5 [23] = assay: Cytotoxicity against human SK-MEL-5 cells after 48 hrs by SRB assay; type: functional; conditions: SK-MEL-5, 48 h
MDA-MB-231 = assay: Cytotoxicity against human MDA-MB-231 cells after 48 hrs by SRB assay; type: functional; conditions: MDA-MB-231, 48 h
T47D = assay: Cytotoxicity against human T47D cells after 48 hrs by SRB assay; type: functional
Albumin = Albumin (Homo sapiens, UniProt P02768); assay: Binding affinity to human serum albumin at 0.25 to 2 uM at 303 K by fluorescence microscopic analysis in the presence of ibuprofen; type: ADME; conditions: isolated protein
NCI-H460 = assay: Antiproliferative activity against human NCI-H460 cells at 10'5 M; type: functional
Malme-3M [24] = assay: Antiproliferative activity against human MALME-3M cells at 10'5 M; type: functional
[25] = Antiproliferative activity against human TK10 cells at 10'5 M; type: functional, TK-10
[26] = Antiproliferative activity against human DU145 cells at 10'5 M; type: functional, DU-145
[27] = read-out: LC50 (the source's name)

Albumin, sequence (P02768 whole entry): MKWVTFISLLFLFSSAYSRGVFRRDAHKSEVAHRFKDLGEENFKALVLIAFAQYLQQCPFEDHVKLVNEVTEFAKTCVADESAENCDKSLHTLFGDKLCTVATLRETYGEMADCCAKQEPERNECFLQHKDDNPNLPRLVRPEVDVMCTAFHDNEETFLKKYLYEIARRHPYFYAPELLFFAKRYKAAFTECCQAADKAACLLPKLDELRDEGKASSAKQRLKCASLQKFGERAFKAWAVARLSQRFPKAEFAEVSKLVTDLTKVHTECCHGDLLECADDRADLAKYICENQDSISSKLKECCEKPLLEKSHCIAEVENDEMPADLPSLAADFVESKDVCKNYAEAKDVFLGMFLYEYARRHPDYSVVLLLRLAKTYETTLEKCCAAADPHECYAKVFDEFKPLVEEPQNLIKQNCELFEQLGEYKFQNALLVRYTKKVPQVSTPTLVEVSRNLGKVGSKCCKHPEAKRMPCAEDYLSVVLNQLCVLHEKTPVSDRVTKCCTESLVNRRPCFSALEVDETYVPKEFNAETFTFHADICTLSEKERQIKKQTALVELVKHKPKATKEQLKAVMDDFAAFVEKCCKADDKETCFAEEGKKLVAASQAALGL

O=C(/C=C/c1ccccc1)n1c(-c2ccc(Cl)cc2)nc2ccccc21
growth at 10 µM (K562 [1]): 39.8%
growth at 10 µM [2]: -48.8%
growth at 10 µM [3]: -39.4%
growth at 10 µM (NCI-H522): -72.4%
growth at 10 µM [4]: -71.5%
growth at 10 µM [5]: 18.1%
growth at 10 µM (M14 [6]): -37.3%
growth at 10 µM (SK-MEL-2 [7]): -36%
growth at 10 µM (SK-MEL-5 [8]): -70.6%
growth at 10 µM [9]: -64.4%
growth at 10 µM [10]: -84.7%
growth at 10 µM [11]: 10.8%
growth at 10 µM (ACHN): -49.9%
growth at 10 µM [12]: -65.2%
growth at 10 µM [13]: 6.09%
growth at 10 µM [14]: 11.1%
growth at 10 µM (MCF7): 10.3%
growth at 10 µM [15]: 20%
growth at 10 µM (MDA-MB-468): -6.61%
GI50 (CCRF-CEM): 0.73 µM
TGI (CCRF-CEM): 3.45 µM
CC50 (CCRF-CEM; [27]): > 100 µM
GI50 (K562 [16]): 2.09 µM
TGI (K562 [16]): 11.8 µM
CC50 (K562 [16]; [27]): > 100 µM
GI50 [17]: 1.13 µM
TGI [17]: 6.73 µM
CC50 [17, 27]: > 100 µM
GI50 (NCI-H226): 1.46 µM
TGI (NCI-H226): 3.82 µM
CC50 (NCI-H226; [27]): 10 µM
GI50 (NCI-H23): 2.17 µM
TGI (NCI-H23): 6 µM
CC50 (NCI-H23; [27]): > 100 µM
GI50 (NCI-H322M): 1.91 µM
TGI (NCI-H322M): 4.89 µM
CC50 (NCI-H322M; [27]): 20 µM
GI50 [18]: 1.41 µM
TGI [18]: 2.78 µM
CC50 [18, 27]: 5.49 µM
GI50 [19]: 2.1 µM
TGI [19]: 6.14 µM
CC50 [19, 27]: 42.5 µM
GI50 (U-251): 1.44 µM
TGI (U-251): 3.77 µM
CC50 (U-251; [27]): 9.91 µM
GI50 (Malme-3M [20]): 0.59 µM
TGI (Malme-3M [20]): 1.91 µM
CC50 (Malme-3M [20]; [27]): 4.77 µM
GI50 (M14 [21]): 1.63 µM
TGI (M14 [21]): 5.74 µM
CC50 (M14 [21]; [27]): 26 µM
GI50 (SK-MEL-2 [22]): 1.11 µM
TGI (SK-MEL-2 [22]): 3.04 µM
CC50 (SK-MEL-2 [22]; [27]): 8.32 µM
GI50 (SK-MEL-5 [23]): 1.49 µM
TGI (SK-MEL-5 [23]): 3.22 µM
CC50 (SK-MEL-5 [23]; [27]): 6.92 µM
GI50 (MDA-MB-231): 1.88 µM
TGI (MDA-MB-231): 5.18 µM
CC50 (MDA-MB-231; [27]): 25.4 µM
GI50 (T47D): 1.73 µM
TGI (T47D): 7.68 µM
CC50 (T47D; [27]): 57.5 µM
K (Albumin): 5.63 ×10³ /M
growth inhibition (GI) (NCI-H460): 99.46%
growth inhibition (GI) (Malme-3M [24]): 84.12%
growth inhibition (GI) [25]: 81.42%
growth inhibition (GI) [26]: 88.87%
